Laboratory results reported in US20160047819A1, “METHOD FOR DIAGNOSING VAGINAL INFECTIONS” (priority 2013, published 2016).

Tests used:
Assay in all cases: Real-time PCR of vaginal bacterial communities
Assay type in all cases: in vivo
Prevotella = test system: Prevotella
Description: (§1) The qPCR real-time quantitative PCR was used for the identification and quantification of bacterial groups involved in the imbalance that effects the vaginal microbiota, in particular to determine the concentrations of the principal bacterial groups which are known to be affected in the presence of BV such as Lactobacillus, Atopobium, Gardnerella vaginalis, Prevotella, Veillonella, Mobiluncus and Mycoplasma hominis.
(§2) qPCR was performed on DNA samples extracted from CVF of healthy women (H), women affected by BV at V1 (BV), women who were in remission after rifaximin treatment at V3 (R), and women who were not in remission after antibiotic or placebo treatment at V3 (N).
(§3) A total of 80 Belgian pre-menopausal, non-pregnant women, aged between 18 and 50 years were included in the present study. At the screening visit (V1) diagnosis of health or BV was made using both Amsel's criteria and Gram stain Nugent scoring. Patients with Nugent score >3 and positive for at least 3 of 4 Amsel's criteria were considered positive for BV. According to this clinical evaluation, women were split into 2 groups: healthy subjects (H), who had no signs of vaginal tract infection (n=41) and patients affected by BV (n=39).
(§4) Patients who were diagnosed for BV at the study visit V1 were included in a multicentre, double-blind, randomised, placebo-controlled study (EudraCT: 2009-011826-32), that was performed to compare the efficacy of different doses of rifaximin vaginal tablets versus placebo for the treatment of BV. The patients underwent a randomization visit and were distributed into 4 treatment groups: group A received 100 mg rifaximin vaginal tablet once daily for 5 days (n=10), group B received 25 mg rifaximin vaginal tablet once daily for 5 days (n=10), group C received 100 mg rifaximin vaginal tablet once daily for the first 2 days and placebo vaginal tablet for the remaining 3 days (n=9), group D received placebo vaginal tablet once daily for 5 days (n=10). Study medication was administered intra-vaginally at bedtime. After 7 to 10 days from the end of the therapy a follow-up visit (V3) was performed. Remission was evaluated at V3 according to Amsel's criteria (<3) and Gram stain Nugent score (≦3) (Table 1).
(§5) Standardized vaginal rinsings with 2 mL of saline were collected for analysis at V1 and V3 by flushing and re-aspirating the fluid through a 22 Gauge needle in the left, central and right upper vaginal vaults. The vaginal rinsings were subsequently stored at −80° C. until use.
(§6) One mL of each vaginal rinsing was centrifuged at 9500 g for 15 min to separate the pellet, which was processed for bacterial DNA isolation, from the supernatant, used for protein extraction.
(§7) DNA amount was quantified using NanoDrop ND-1000 (NanoDrop® Technologies, Wilmington, Del.).
(§8) Real-time PCR was performed on DNA samples extracted from cervicovaginal fluid (CVF) collected from 41 healthy women (H) and 39 BV-affected women before (BV) and after rifaximin/placebo treatment R (11 women in remission) and N (28 women not in remission).
(§9) Specific primer sets targeted to 16S rRNA gene or 16S-23S rRNA spacer region were used to quantify the following genus or species: Lactobacillus, Gardnerella vaginalis, Atopobium, Prevotella, Veillonella, Mycoplasma hominis and Mobiluncus.

Veillonella = test system: Veillonella
Description: as §1, §2, §3, §4, §5, §6, §7, §8, §9

Atopobium = test system: Atopobium
Description: as §1, §2, §3, §4, §5, §6, §7, §8, §9

Gardnerella vaginalis = test system: Gardnerella vaginalis
Description: as §1, §2, §3, §4, §5, §6, §7, §8, §9

Mycoplasma hominis = test system: Mycoplasma hominis
Description: as §1, §2, §3, §4, §5, §6, §7, §8, §9

Lactobacillus = test system: Lactobacillus
Description: as §1, §2, §3, §4, §5, §6, §7, §8, §9

Mobiluncus = test system: Mobiluncus
Description: as §1, §2, §3, §4, §5, §6, §7, §8, §9

[1] = R group: women in remission after rifaximin treatment at V3
[2] = R group: women in remission after rifaximin treatment at V3, qPCR

**Q.** Which results are given for `CO[C@H]1/C=C/O[C@@]2(C)Oc3c(C)c(O)c4c(O)c(c5c(nc6cc(C)ccn65)c4c3C2=O)NC(=O)/C(C)=C\C=C\[C@H](C)[C@H](O)[C@@H](C)[C@@H](O)[C@@H](C)[C@H](OC(C)=O)[C@@H]1C` [rifaximin]?
**A.** Prevotella concentration in R group (Prevotella; R group at V3): very low concentrations; Target DNA/genomic vaginal DNA (median), Prevotella (Prevotella; [1]): 0.0451 ng/µg; % of women hosting Prevotella (Prevotella; [2]): 81.8%; Veillonella quantification in R group (Veillonella; R group at V3): not quantified in any of the women; Target DNA/genomic vaginal DNA (median), Veillonella (Veillonella; [1]): 0.0 ng/µg; % of women hosting Veillonella (Veillonella; [2]): 0.0%; Atopobium concentration in R group compared to BV group (Atopobium; R group at V3 vs BV group, still higher than H group): significantly lower; Target DNA/genomic vaginal DNA (median), Atopobium (Atopobium; [1]): 4.86 ng/µg; % of women hosting Atopobium (Atopobium; [2]): 100%; G. vaginalis concentration in R group (Gardnerella vaginalis; R group at V3): very low concentrations; Target DNA/genomic vaginal DNA (median), G. vaginalis (Gardnerella vaginalis; [1]): 0.0 ng/µg; % of women hosting Gardnerella vaginalis (Gardnerella vaginalis; [2]): 45.5%; M. hominis in R group compared to BV group (Mycoplasma hominis; R group at V3 vs BV group): significant reduction; Target DNA/genomic vaginal DNA (median), Mycoplasma hominis (Mycoplasma hominis; [1]): 0.00156 ng/µg; % of women hosting Mycoplasma hominis (Mycoplasma hominis; [2]): 63.6%; median value of Lactobacilli in R group relative to BV group (Lactobacillus; R group after antibiotic treatment vs BV group, higher): about 10 times; Target DNA/genomic vaginal DNA (median), Lactobacillus (Lactobacillus; [1]): 46.3 ng/µg; % of women hosting Lactobacillus (Lactobacillus; [2]): 100%; Mobiluncus quantification in R group (Mobiluncus; R group at V3): not quantified in any of the women; Target DNA/genomic vaginal DNA (median), Mobiluncus (Mobiluncus; [1]): 0.0 ng/µg; % of women hosting Mobiluncus (Mobiluncus; [2]): 0.0%
